# Key:
# [1] = test system: Anas platyrhynchos
# [2] = test system: Apis mellifera; conditions: acute, mortality
# [3] = test system: Bibionidae; conditions: chronic/long-term; duration: 28 days
# [4] = test system: Chironomus tentans; conditions: chronic/long-term; duration: 28 days
# [5] = test system: Colinus virginianus; conditions: for LD50: acute, oral, mortality
# [6] = test system: Cyprinodon variegatus
# [7] = test system: Daphnia magna; conditions: chronic/long-term; duration: 21 days
# [8] = test system: Folsomia candida; conditions: chronic/long-term
# [9] = test system: Hypoaspis aculeifer; conditions: chronic/long-term
# [10] = test system: Neomysis kadiakensis
# [11] = test system: Oryctolagus sp.; conditions: reproduction developmental; organ weight
# [12] = test system: Poephila guttata; conditions: acute; oral; unspecified; mortality
# [13] = test system: Rattus norvegicus; conditions: acute; mortality
# [14] = test system: Tagia sp.
# [15] = acute, duration: 96 hours, mortality
# [16] = chronic/long-term, duration: 28 days
structure (smiles),measurement,setting,value
COC(=O)c1nc(-c2ccc(Cl)c(OC)c2F)cc(N)c1Cl [Halauxifen-methyl],NOAEL,"[1]; reproductive, reproduction",160 mg/kg-day
same,LD50,"[1]; short-term, oral, feed, mortality",> 2090 mg/kg-day
same,LD50,[2]; dermal,> 98.1 µg/piece
same,LD50,"[2]; oral, unspecified",> 108 µg/piece
same,NOEC,[3],1.26 mg/L
same,NOEC,[4],89.3 mg/kg
same,LD50,[5]; diet,> 1330 mg/kg-day
same,LD50,[5],> 2250 mg/kg
same,NOAEL,"[5]; reproduction developmental, reproduction",36.9 mg/kg-day
same,LC50,[6]; [15],> 1.33 µg/mL
same,NOEC,[6]; [16],0.0115 mg/L
same,NOEC,[7],0.144 mg/L
same,NOEC,[8],500 mg/kg
same,NOEC,[9],12.5 mg/kg
same,LC50,[10]; [15],> 1.3 µg/mL
same,NOEC,[10]; [16],0.152 mg/L
same,NOAEL,[11],5.78 mg/kg-day
same,LD50,[12],> 2250 mg/kg
same,LD50,[13],> 5000 mg/kg
same,LC50,"[14]; acute, duration: 14 days, mortality",> 500 mg/kg
same,NOEC,"[14]; chronic/long-term, duration: 8 weeks",5 mg/kg
